Reference: ChEMBL document CHEMBL1201862, “PubChem BioAssay data set” (2004)
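Protocol summary: plate cells (96-well), add compound at 5 concentrations, incubate 48 h, interpolate endpoints linearly. GI50 = concentration required for 50% inhibition of growth.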 Calls of active or inactive are those of the source. No stated cut-off is given here; in the data, active = GI50 up to about 1.1 µM and inactive = higher.

Key:
Experiment in all cases: inhibition of tumour cell growth, NCI panel, 48 h
HT-29 = tested on: HT-29
HCT-116 = tested on: HCT-116
Malme-3M = tested on: Malme-3M
NCI-H23 = tested on: NCI-H23
TK-10 = tested on: TK-10
SK-MEL-28 = tested on: SK-MEL-28
SK-MEL-5 = tested on: SK-MEL-5
SNB-19 = tested on: SNB-19
SF-268 = tested on: SF-268
COLO 205 = tested on: COLO 205
A498 = tested on: A498
OVCAR-3 = tested on: OVCAR-3
CAKI-1 = tested on: CAKI-1
M14 = tested on: M14
HOP-62 = tested on: HOP-62
NCI-H522 = tested on: NCI-H522
U-251 = tested on: U-251
OVCAR-4 = tested on: OVCAR-4
K562 = tested on: K562

Measured: GI50

S=c1sc2c(Cl)ncnc2n1-c1ccccc1
inactive: HT-29 11.4 µM | HCT-116 5.66 µM | Malme-3M 10.9 µM | NCI-H23 17.4 µM | TK-10 17.8 µM | SK-MEL-28 11.2 µM | SK-MEL-5 16.1 µM | SNB-19 18.2 µM | SF-268 5.05 µM | COLO 205 14 µM | A498 16.6 µM | OVCAR-3 15.4 µM | CAKI-1 4.88 µM | M14 13.3 µM | HOP-62 15.6 µM | NCI-H522 2.01 µM | U-251 16 µM | OVCAR-4 18.8 µM

O=C(Cc1csc(N/N=C2\C(=O)Nc3ccccc32)n1)Nc1ccccc1
inactive: HT-29 27 µM | HCT-116 21.4 µM | NCI-H23 38.9 µM | TK-10 44.1 µM | SK-MEL-28 21 µM | SK-MEL-5 15.3 µM | SNB-19 26.9 µM | SF-268 17.7 µM | COLO 205 55.1 µM | A498 40.6 µM | OVCAR-3 24.2 µM | CAKI-1 23.3 µM | M14 38.3 µM | HOP-62 18.1 µM | U-251 22.6 µM | OVCAR-4 41.5 µM

CC1C(c2ccccc2)=CCON1c1ccccc1 (stereo not given)
inactive: HT-29 > 100 µM | HCT-116 > 100 µM | Malme-3M > 100 µM | NCI-H23 > 100 µM | SK-MEL-28 > 100 µM | SK-MEL-5 > 100 µM | SNB-19 > 100 µM | SF-268 > 100 µM | COLO 205 > 100 µM | OVCAR-3 > 100 µM | CAKI-1 > 100 µM | M14 > 100 µM | HOP-62 > 100 µM | K562 > 100 µM | NCI-H522 > 100 µM | U-251 > 100 µM | OVCAR-4 > 100 µM

NC(=O)/C(=N\NC(=O)C[n+]1ccccc1)C1NC(=O)NC1=O (stereo not given)
inactive: HT-29 > 100 µM | HCT-116 > 100 µM | Malme-3M > 100 µM | NCI-H23 > 100 µM | TK-10 > 100 µM | SK-MEL-28 > 100 µM | SK-MEL-5 > 100 µM | SNB-19 > 100 µM | SF-268 > 100 µM | COLO 205 32.7 µM | A498 > 100 µM | OVCAR-3 > 100 µM | CAKI-1 > 100 µM | M14 > 100 µM | HOP-62 > 100 µM | K562 > 100 µM | OVCAR-4 > 100 µM

CCCC(=O)c1c(NOC2OC(COC(C)=O)C(OC(C)=O)C(OC(C)=O)C2OC(C)=O)nc(OC)n(C)c1=O (stereo not given)
inactive: HT-29 > 100 µM | HCT-116 > 100 µM | NCI-H23 > 100 µM | TK-10 > 100 µM | SK-MEL-28 > 100 µM | SK-MEL-5 > 100 µM | SNB-19 > 100 µM | SF-268 > 100 µM | COLO 205 > 100 µM | M14 > 100 µM | HOP-62 > 100 µM | K562 > 100 µM | NCI-H522 > 100 µM | U-251 > 100 µM | OVCAR-4 > 100 µM

O=c1[nH]cnc2c1nnn2C1C=C(CO)C(O)C1O (stereo not given)
inactive: HT-29 > 100 µM | HCT-116 53.7 µM | NCI-H23 > 100 µM | TK-10 > 100 µM | SK-MEL-28 > 100 µM | SK-MEL-5 > 100 µM | SNB-19 > 100 µM | SF-268 74.1 µM | COLO 205 > 100 µM | A498 > 100 µM | OVCAR-3 > 100 µM | CAKI-1 > 100 µM | M14 > 100 µM | HOP-62 > 100 µM | K562 > 100 µM | U-251 > 100 µM | OVCAR-4 > 100 µM

Cc1ccc(S(=O)(=O)OCC23CCC(C4CC42)C2CC23)cc1 (stereo not given)
inactive: HT-29 43.8 µM | HCT-116 87.7 µM | Malme-3M 75.5 µM | NCI-H23 48.8 µM | TK-10 > 100 µM | SK-MEL-28 > 100 µM | SK-MEL-5 31.6 µM | SNB-19 > 100 µM | SF-268 67.9 µM | COLO 205 95.9 µM | A498 96.2 µM | OVCAR-3 38.5 µM | CAKI-1 > 100 µM | M14 > 100 µM | HOP-62 52.7 µM | K562 52.4 µM | U-251 > 100 µM | OVCAR-4 28.1 µM

CCOC(=O)C(C(=O)c1ccccc1-c1ccccc1C(=O)O)=P(c1ccccc1)(c1ccccc1)c1ccccc1
inactive: HT-29 25 µM | HCT-116 18.7 µM | Malme-3M 22.4 µM | NCI-H23 20 µM | TK-10 80.4 µM | SK-MEL-28 18.7 µM | SK-MEL-5 15.5 µM | SNB-19 25.8 µM | SF-268 41.6 µM | COLO 205 19.1 µM | A498 25.4 µM | OVCAR-3 25.1 µM | M14 38.5 µM | HOP-62 18.8 µM | K562 20 µM | U-251 18.3 µM | OVCAR-4 18 µM
